Assay results as given in US7601494B2, “Method of screening candidate compounds for susceptibility to biliary excretion” (The University of North Carolina at Chapel Hill, priority 1999, dated 2009).

Tests used:
[1] = system: hepatic cytochrome p450 isozymes; settings: Silver et al. 1996; cited from earlier work
[2] = system: sandwich-cultured hepatocytes; experiment: HPLC analysis of 10-min cell lysate of 96-hr sandwich-cultured hepatocytes; type: in vitro ADME, rat; settings: 96-hr hepatocytes incubated with 3 μM [14C]264W94, 10 min
Description: Aliquots of cell lysate or bile samples containing 264W94 or 2169W94 were mixed with 2-fold volumes of ice-chilled acetonitrile, and centrifuged to remove precipitated proteins. The supernatant was evaporated under nitrogen at room temperature, and reconstituted in 100 μL of a 70/30 mixture of 50 mM ammonium acetate/acetonitrile/trifluoroacetic acid (95:5:0.1 v:v:v) and acetonitrile. The sample extracts were injected onto a WATERS™ […]™ C18 column (3.9×150 mm) and eluted by a 85/15 mixture of 50 mM ammonium acetate (pH 4.0) and acetonitrile; the percentage of acetonitrile was increased by a WATERS™ 600E System Controller to 55% over a period of 20 minutes, and then to 100% during the next 10 minutes.
Radiocarbon that eluted from the HPLC was quantified with an on-line radioactivity detector (RADIOMATIC FLO-ONE/BETA™ Radio-Chromatography Detector Series 500 TR Series, Packard Instrument Co.). The peaks of 264W94, 2169W94, and 2169W94 glucuronide were identified by comparing with purified standard compound. Under these conditions, baseline separation of these three components was achieved. The concentration of the three components was determined by normalizing the eluted radioactivity in each peak to the total injected radioactivity. […]

[3] = Biliary excretion in bile duct cannulated rats after administration of [14C]264W94 / [14C]2169W94; type: in vivo, rat
Description: Male Wistar rats (250-280 g) from Charles River Laboratory (Raleigh, N.C.) were used as liver donors. Rats were housed individually in stainless-steel cages in a constant alternating 12-hr light and dark cycle at least 1 week before the study was performed, and were fed ad libitum until use. Bile duct cannulated rats (200-250 g) were obtained from Charles River (Raleigh, N.C.). The Institutional Animal Care and Use Committee at the University of North Carolina at Chapel Hill, Chapel Hill, N.C., approved all procedures.
[^14C]264W94 was formulated as a solution in a mixture of sterile water/polypropylene glycol 400/ethanol (2:1:1 v/v/v) at a concentration of 0.125 mg/mL. Following collection of pre-dose bile, [^14C]264W94 solution was administrated by caudal vein injection (0.1 mg/kg). For the 2169W94 studies, [^14C]2169W94 was prepared as a suspension at a concentration of 0.1 mg/mL in 0.5% (w/v) methylcellulose in water. Following collection of pre-dose bile, [^14C]2169W94 suspension was administrated by gavage (1.0 mg/kg). All rats were placed into individual plastic metabolism cages that allowed the rats unrestrained movement. Bile was collected into polypropylene containers surrounded by ice. For the 264W94 studies, the bile container was changed at 8 and 24 hours after the dose. […] Bile samples were stored at −20° C. until analysis.
Aliquots of cell lysate or bile samples containing 264W94 or 2169W94 were mixed with 2-fold volumes of ice-chilled acetonitrile, and centrifuged to remove precipitated proteins. The supernatant was evaporated under nitrogen at room temperature, and reconstituted in 100 μL of a 70/30 mixture of 50 mM ammonium acetate/acetonitrile/trifluoroacetic acid (95:5:0.1 v:v:v) and acetonitrile. […]
Radiocarbon that eluted from the HPLC was quantified with an on-line radioactivity detector (RADIOMATIC FLO-ONE/BETA™ Radio-Chromatography Detector Series 500 TR Series, Packard Instrument Co.). […] The concentration of the three components was determined by normalizing the eluted radioactivity in each peak to the total injected radioactivity.

[4] = system: short-term cultured hepatocytes; experiment: Cumulative uptake in 3-hr (short-term) cultured hepatocyte monolayers, standard vs Ca2+-free buffer; type: in vitro ADME, rat; settings: 3-hr cultured hepatocytes
Description: Hepatocytes were isolated with a two-step perfusion method. Briefly, rats were anesthetized with ketamine and xylazine (60 and 12mg/kg i.p., respectively) prior to portal vein cannulation. The liver was perfused in situ with oxygenated Ca^2+-free Krebs-Henseleit bicarbonate buffer containing collagenase type 1 (0.5 mg/ml) for 10 min. The hepatic capsule was removed with forceps. The hepatocytes were released by shaking the liver gently in 100 ml DMEM.
The released cells were filtered through a sterile nylon mesh (70-μm). The hepatocyte suspensions were centrifuged at 50 xg for 3 min. The cell pellet was resuspended in 25 ml DMEM and an equal volume of 90% isotonic polyvinylpyrrolidone-coated silica colloid centrifugation medium (pH 7.4) sold under the registered trademark PERCOLL® by Pharmacia, Inc. of Piscataway, N.J. The resulting cell suspension was centrifuged at about 70 to about 150 xg for 5 min. The pellet was resuspended in 50 ml DMEM and the cell suspensions were combined into one tube followed by centrifugation at 50 xg for 3 min. Hepatocyte viability was determined by trypan blue exclusion. Only those hepatocyte preparations with viability greater than 90% were utilized for further studies.
Hepatocyte suspensions were prepared with DMEM containing 5% fetal calf serum, 1 μM dexamethasone and 4 mg/L insulin. Hepatocyte suspensions were added to the precoated dishes at a density of about 2-3×10^6 cells/60-mm dish. Approximately 1 hr after plating the cells, the medium was aspirated and 3-ml fresh DMEM was added. For transport studies, hepatocytes that had been seeded for 3-5 hr without collagen overlay were defined as 3-hr or short-term cultured hepatocytes.
(§1) Hepatocytes cultured in a collagen-sandwich configuration were incubated in 3 ml standard buffer or Ca^2+-free buffer at 37° C. for 10 min. After removing the incubation buffer, uptake was initiated by addition of 3 ml standard buffer containing substrate to each dish. After incubation for designated times, cumulative uptake was terminated by aspirating the incubation solution and rinsing 4 times with 3 ml ice-cold standard buffer to remove extracellular substrate. After washing, 2 ml of 1% Triton X-100 solution was added to culture dishes, and the cells were lysed by shaking the dish on a shaker for 20 min at room temperature. An aliquot (1 ml) of lysate was analyzed by liquid scintillation spectrometry. Bio-Rad DC Protein Assay Kit (Bio-Rad Laboratories, Hercules, Calif.) was used to determine the protein concentration in the culture extracts using bovine serum albumin as standard. […] All values for substrate uptake into cell monolayers were corrected for nonspecific binding to the collagen by subtracting the substrate uptake determined in the appropriate control dishes in the absence of cells as described previously.
(§2) Uptake data were normalized to the protein content and expressed as mean±SD from 3-4 separate preparations of hepatocytes. Statistical differences between mean values for the 10-min cumulative substrate uptake in the presence and absence of Ca^2+ were determined by the use of the well-known Student's t-test. A P value of <0.05 was considered significant.

[5] = system: sandwich-cultured hepatocytes; experiment: Cumulative uptake, Biliary Excretion Index and in vitro biliary clearance in 96-hr sandwich-cultured hepatocytes; type: in vitro ADME, rat
Description: To prepare sandwich-cultured hepatocytes, neutralized collagen solution (0.1 ml, about 1.5 to about 3.0 mg/ml, pH 7.4) was added to the monolayers 24 hr after the cells were seeded. […] Medium was changed on a daily basis until the fourth day after the cells were seeded. These hepatocytes were referred to as 96-hr or long-term cultured hepatocytes.
as §1, §2
Biliary excretion of substrates in the monolayers was quantitatively assessed by the Biliary Excretion Index based on Equation 3:
[formula] where Uptakestandard and Uptake Ca^2+-free represent the cumulative uptake of substrate over a 10-min interval in the hepatocyte monolayers pre-incubated in standard buffer and in Ca^2+-free buffer, respectively.
Biliary clearance in the sandwich-cultured hepatocytes, ClB(culture) (ml/min/kg per body weight), was calculated according to Equation 4:
[formula] where Timeincubation was 10 min and Concentrationmedium represented the initial substrate concentration in the incubation medium. In some embodiments, a biliary clearance value can be calculated as the ratio of the mass in the bile canaliculi and the area under the curve (AUC) in culture medium, wherein the AUC represents the integral of candidate compound (e.g. xenobiotic concentration) in the medium from time 0 to time T (time can be measure in any desired units, and is usually measured in minutes). Indeed, the term AUC can refer to the following equation: […]

CCCC[C@]1(CC)CS(=O)(=O)c2cc(OC)c(OC)cc2[C@@H](c2ccccc2)N1 [264W94, (3R, 5R)-3-butyl-3-ethyl-2,3,4,5-tetrahydro-7,8-dimethoxy-5-phenyl-1,4-benzothiazepine-1,1-dioxide]
cytochrome p450 isozyme primarily involved in the metabolism [1]: CYP3A4
share of total radioactivity in cell lysate [2]: 73.0%
biliary excretion in rats (in words) ([3]; in vivo): negligible biliary excretion
detection in bile in 24 hr ([3]; rats, i.v. [14C]264W94 0.24 μmol/kg): neither 264W94 nor 2169W94 was detected
total administered radioactivity recovered in bile ([3]; rats, oral administration 2.4 μmol/kg, in 8 hr, n=2): 66.4%
cumulative uptake in standard buffer compared to Ca2+-free buffer [4]: similar
cumulative uptake in standard buffer compared to Ca2+-free buffer ([5]; 96-hr cultured hepatocytes): not significantly different
biliary excretion in long-term sandwich-cultured hepatocytes (in words) ([5]; 96-hr sandwich-cultured hepatocytes): lack of biliary excretion
